Numbered stars: 1 amine (or outer) side, 2 acyl side, 3 side chain; on linkers, the order of the positions; unused ones are H or OH. Bridge positions count the residues as written; N and C are the ends. Square brackets hold non-standard residues; d marks the D form. Peptide text beside a SMILES is read from it. * marks the point of attachment. Cinnamoyl(2-(1Z-pentenyl)) = CCC/C=C\c1ccccc1/C=C/C(=O)*; X3 = CC(=O)Oc1ccc(/C=C(\C(=O)[*:2])N(C)[*:1])cc1; X1 = CN(/C(=C/c1ccc(O)cc1)C(=O)[*:2])[*:1]; aThr = C[C@H](O)[C@H](N)C(=O)O; X2 = CCCCCc1ccccc1CCC(=O)*

By IC50 is commonly meant the concentration at which inhibition is half-maximal.

Series [1] has as its target T1, specific [^3H] substance P binding to guinea pig lung membranes (Cavia porcellus, UniProt P30547).
T1 construct: from tissue; host or cells: guinea pig trachea and lung, crude membrane fraction
As to the kind of experiment: ^3H-substance P binding to preparative membranes (guinea pig lung). Particulars: ^3H-Substance P 1nM, 4°C, 30 minutes, read-out: IC50 (M), displacement of specific [^3H] substance P binding.
Protocol: (a) Crude membrane preparation
Male albino Hartley strain guinea pigs (600 g) were sacrificed by decapitation. The trachea and lungs were removed, and stored at -80°C until use. These tissues (150 g) were thawed and homogenized in 500 ml buffer (0.25 M sucrose, 50 mM Tris-HCℓ pH 7.5, 0.1 mM EDTA) with a compact mixer (Matsuden MJ-761). The tissue was homogenized with a Ultra-Disperser (Yamato MODEL LK-21) at a setting of maximum range for 10-s at 10-s intervals with cooling between homogenizations (total homogenization's time : 60 seconds). The homogenate was centrifuged (900 x g for 10 min.) to remove tissue clumps and the supernatant centrifuged at 14000 x g for 20 min. to yield pellets which were referred to as crude membrane fractions. The pellets were resuspended in Medium I, homogenized with a teflon homogenizer and centrifuged at 14000 x g for 20 min. The pellets were stored at -20°C.
(b) ^3H-substance P binding to preparative membranes
^3H-Substance P (1nM, New England Nuclear) was incubated with 50 µℓ of the membrane preparation in medium I at 4°C for 30 minutes in a final volume of 250 µℓ. […] The radioactivity was counted in 3 ml of Aquazol-2 in Packard sintillation counter (Packard TRI-CARB 4530).

The nature of series [2]: Solubility in solvents (physical and chemical properties). It is filed as physicochemical. As for the experimental part: The obtained product was triturated from diethyl ether to give triacetyl-WS-9326A (332 mg) as a colorless powder. Physical and chemical properties of the triacetyl-WS-9326A are as follows. […] (23)/(D) [formula] : -122° (C=1.0, MeOH) (6) Ultraviolet Absorption Spectrum : λ (MeOH)/(max) [formula] = 283 nm (ε=32,000) (7) Molecular Formula : C60H74N8O16 (8) Elemental Analysis : […]

T1 sequence (P30547 whole entry): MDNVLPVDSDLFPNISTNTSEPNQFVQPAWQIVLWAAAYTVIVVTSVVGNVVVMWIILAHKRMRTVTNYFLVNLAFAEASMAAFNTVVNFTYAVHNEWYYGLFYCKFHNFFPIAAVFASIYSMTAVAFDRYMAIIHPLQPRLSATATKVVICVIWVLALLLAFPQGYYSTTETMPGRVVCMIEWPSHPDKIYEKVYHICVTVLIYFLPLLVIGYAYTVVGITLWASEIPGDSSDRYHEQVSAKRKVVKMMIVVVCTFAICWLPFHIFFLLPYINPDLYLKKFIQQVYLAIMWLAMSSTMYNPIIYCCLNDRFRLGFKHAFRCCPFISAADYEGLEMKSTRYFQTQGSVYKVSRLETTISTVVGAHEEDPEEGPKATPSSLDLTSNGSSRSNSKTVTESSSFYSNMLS

Take `CCCCCc1ccccc1CCC(=O)N[C@@H]1C(=O)N(C)/C(=C/c2ccc(O)cc2)C(=O)N[C@@H](CC(C)C)C(=O)N[C@H](Cc2ccccc2)C(=O)N[C@@H]([C@H](C)O)C(=O)N[C@@H](CC(N)=O)C(=O)N[C@@H](CO)C(=O)O[C@@H]1C` [Tetrahydro-WS-9326A] (X2-T[X1]L[dF][aThr]NS; ester 1-C): the IC50 in series [1] is 4.2e-07 M.
In the case of `CCC/C=C\c1ccccc1/C=C/C(=O)N[C@@H]1C(=O)N(C)/C(=C/c2ccc(OC(C)=O)cc2)C(=O)N[C@@H](CC(C)C)C(=O)N[C@H](Cc2ccccc2)C(=O)N[C@@H]([C@H](C)OC(C)=O)C(=O)N[C@@H](CC(N)=O)C(=O)N[C@@H](COC(C)=O)C(=O)O[C@@H]1C` [triacetyl-WS-9326A] ({Cinnamoyl(2-(1Z-pentenyl))}-T[X3]L[dF][aThr](Ac)NS(Ac); ester 1-C), the Solubility result in series [2] (chloroform) is on record as “Sparingly Soluble”; in series [2] (diethyl ether), “Sparingly Soluble”; in series [2] (dimethyl sulfoxide), “Soluble”; in series [2] (methanol), “Soluble”; in series [2] (n-hexane) it was “Insoluble”.

(Values after EP0336230B1, “Cyclic peptide antagonists of Substance P and Substance K” (FUJISAWA PHARMACEUTICAL CO., LTD., priority 1988, dated 1989).)
